# In US4267189A, “Method of use and composition for 1,3-dihydro-3-(2-hydroxy-2-methylpropyl)-2H-isoindol-1-one” (American Home Products Corporation, priority 1979, dated 1981):
# Key:
# [1] = test system: Oxotremorine-Induced Effects; assay: Anticholinergic activity: antagonism of oxotremorine-induced effects (temperature, tremor, salivation, lacrimation); type: in vivo, mice; settings: for Lacrimation (L) score / Salivation (S) score / Tremor (T) score: 2=strong, 1=weak, 0=none
# Description: Anticholinergic activity was examined in vivo by determining the ability of the compound to antagonize oxotremorine-induced effects according to the method described by P. S. J. Spencer, Life Sci., 5, 1015 (1965). […] Rectal temperature was measured with a YSI telethermometer 402 physiological probe before administration of test compounds and oxotremorine and at 15 and 30 min after oxotremorine. At the same time the degree of tremor, salivation and lacrimation was scored as follows: 2=strong; 1=weak; 0=none.
# [2] = test system: Indomethacin-Induced Ulcer Formation; assay: Indomethacin-induced ulcer formation; type: in vivo, rat (female albino Sprague-Dawley); settings: for Ulcers Formed: mean ± S.E.; for ED50: Rattus norvegicus, indomethacin-induced ulcers, oral, doses in mg/kg
# Description: The method utilized for the production and evaluation of indomethacin-induced ulcer formation was essentially as described by Y. H. Lee et al., Arch. Int. Pharmacodyn. […] Indomethacin (20 mg/kg, i.p.) was given, the animals sacrificed by cervical dislocation 5 hr later and the number of ulcers present in the glandular portion of the stomach determined. The test compound was administered orally (0.2 ml) 1 hr before the indomethacin. The vehicle employed for the administrations was water containing Tween 80 (1 drop per 7 ml). There were 12-32 animals per group.
# [3] = test system: Cold-Restraint-Induced Ulcer Formation; assay: Cold-restraint-induced ulcer formation; type: in vivo, rat (male albino Sprague-Dawley); settings: for Ulcers Formed: mean ± S.E.; for ED50: Rattus norvegicus, cold-restraint ulcers, oral, doses in mg/kg
# Text: Int. Pharmacodyn. […] Exp. Biol. Med., 113, 998 (1963) as modified by E. C. Senay and R. J. Levine Proc. Soc. Exp. Biol. Med., 124, 1221 (1967) when administered orally or parenterally (see Examples 3 and 4).
# To assess the effects of the test compound on the development of cold-restraint-induced gastric lesions, the method of D. A. Brodie and L. S. Valitski Proc. Soc. Exp. Biol. Med., 113, 998 (1963) as modified by E. C. Senay and R. J. Levine Proc. Soc. Exp. Biol. Med., 124, 1221 (1967) was used. Food was withheld from male albino rats (165-175 g, Sprague-Dawley, Canadian Breeding Laboratories) for 24 hr but water was freely available. The test compound was administered orally (0.2 ml) to the animals (8-24 per group) 30 min before placing the animals into restrainers, the restrainer was made of plexiglass and restricted the movement of the rat to a minimum. The vehicle employed was as described above. The restrainers were placed in a cold environment (4°-7° C.) for 2 hr. The animals were sacrificed by cervical dislocation, the stomachs removed and the number of ulcers in the glandular portion of the stomach determined.
# gastric acid secretion [4] = settings: Lee et al.; cited from earlier work
# Gastric Acid Secretion [5] = assay: Basal gastric acid secretion in the Shay (pylorus-ligated) rat; type: in vivo, rat (female Sprague Dawley); settings: for Gastric Acid Output: mean ± S.E.; for ED50: Rattus norvegicus, gastric acid secretion; for basal gastric acid secretion (in words): rat
# Description: Female Sprague Dawley rats (Canadian Breeding Laboratories; 160-180 g) were fasted for 48 hours before pyloric ligation. After the first 24 hours of fasting the animals were given access to 8% sucrose in 0.2% sodium chloride for 8 hours. Water was permitted ad libitum except during the 8 hour access to sucrose and after the drug treatment. The compounds were suspended in water with the aid of one drop of Tween 80 per 7 ml for oral or intraperitoneal administration. The pylorus was ligated under ether anesthesia and the sutured incision was covered with flexible collodion to prevent the animals from ingesting adhering blood. The stomachs were lavaged with 0.9% sodium chloride until the return solution was clear. Four hours after pyloric ligation, the animals were killed with diethyl ether and the gastric contents were collected in centrifuge tubes. The amount of acid in the centrifuged gastric juice was determined by titration against 0.1 N sodium hydroxide in a direct reading pH meter of pH 7.0.
# Student's t test was used in the evaluation of the data. The ED50 's were obtained graphically by plotting the percent inhibition of gastric acid secretion versus the logarithm of the dose of the compound.
# [6] = 2 mg/kg i.p., 15 min after oxotremorine
# [7] = 2 mg/kg i.p., 30 min after oxotremorine
# [8] = 5 mg/kg i.p., 15 min after oxotremorine
# [9] = 5 mg/kg i.p., 30 min after oxotremorine
# [10] = 25 mg/kg i.p., 15 min after oxotremorine
# [11] = 25 mg/kg i.p., 30 min after oxotremorine
# [12] = 100 mg/kg i.p., 15 min after oxotremorine
# [13] = 100 mg/kg i.p., 30 min after oxotremorine
compound,measurement,setting,value
"CN1[C@@H]2CC[C@H]1C[C@@H](OC(=O)C(CO)c1ccccc1)C2 (some centres unmarked) [Atropine, reference compound]",Temperature Before Oxotremorine,[1]; 2 mg/kg i.p.,37.6 ± 0.2 °C
same,Temperature after Oxotremorine,"[1]; 2 mg/kg i.p., 15 min",36.7 ± 0.4 °C
same,Lacrimation (L) score,[1]; [6],0
same,Salivation (S) score,[1]; [6],0
same,Tremor (T) score,[1]; [6],0
same,Temperature after Oxotremorine,"[1]; 2 mg/kg i.p., 30 min",35.7 ± 0.4 °C
same,Lacrimation (L) score,[1]; [7],0
same,Salivation (S) score,[1]; [7],0
same,Tremor (T) score,[1]; [7],0
same,Temperature Before Oxotremorine,[1]; 5 mg/kg i.p.,37.2 ± 0.3 °C
same,Temperature after Oxotremorine,"[1]; 5 mg/kg i.p., 15 min",36.9 ± 0.2 °C
same,Lacrimation (L) score,[1]; [8],0
same,Salivation (S) score,[1]; [8],0
same,Tremor (T) score,[1]; [8],0.16
same,Temperature after Oxotremorine,"[1]; 5 mg/kg i.p., 30 min",36.9 ± 0.3 °C
same,Lacrimation (L) score,[1]; [9],0.16
same,Salivation (S) score,[1]; [9],0
same,Tremor (T) score,[1]; [9],0
same,Ulcers Formed (% Inhibition),[2]; 1 mg/kg p.o.,47 % Inhibition
same,Ulcers Formed,[2]; 1 mg/kg p.o.,5.2 ± 1.5
same,Ulcers Formed (% Inhibition),[2]; 2 mg/kg p.o.,85 % Inhibition
same,Ulcers Formed,[2]; 2 mg/kg p.o.,1.5 ± 0.8
same,ED50,[2],1.1 mg/kg
"CN(C)CCCN1c2ccccc2CCc2ccccc21 [Imipramine, reference compound]",Ulcers Formed (% Inhibition),[3]; 1.25 mg/kg p.o.,37 % Inhibition
same,Ulcers Formed,[3]; 1.25 mg/kg p.o.,4.1 ± 1.5
same,Ulcers Formed (% Inhibition),[3]; 2.5 mg/kg p.o.,68 % Inhibition
same,Ulcers Formed,[3]; 2.5 mg/kg p.o.,2.1 ± 0.8
same,Ulcers Formed (% Inhibition),[3]; 5 mg/kg p.o.,81 % Inhibition
same,Ulcers Formed,[3]; 5 mg/kg p.o.,1.2 ± 0.4
same,ED50,[3],1.7 mg/kg
COc1ccc2c(c1)c(CC(=O)O)c(C)n2C(=O)c1ccc(Cl)cc1 [Indomethacin],effect on gastric acid secretion (in words),gastric acid secretion [4],no effect on gastric acid secretion
same,ulcer formation (in words),gastric acid secretion [4],induces ulcer formation
"CC(C)(O)CC1NC(=O)c2ccccc21 (centres unmarked) [Isoindol-1-one, 1,3-dihydro-3-(2-hydroxy-2-methylpropyl)-2H-isoindol-1-one]",Gastric Acid Output (% Inhibition),Gastric Acid Secretion [5]; 12 mg/kg i.p.,18 % Inhibition
same,Gastric Acid Output,Gastric Acid Secretion [5]; 12 mg/kg i.p.,448 ± 59 μEg/4 hr
same,Gastric Acid Output (% Inhibition),Gastric Acid Secretion [5]; 25 mg/kg i.p.,49 % Inhibition
same,Gastric Acid Output,Gastric Acid Secretion [5]; 25 mg/kg i.p.,275 ± 57 μEg/4 hr
same,Gastric Acid Output (% Inhibition),Gastric Acid Secretion [5]; 25 mg/kg p.o.,48 % Inhibition
same,Gastric Acid Output,Gastric Acid Secretion [5]; 25 mg/kg p.o.,226 ± 48 μEq/4 hr
same,Gastric Acid Output (% Inhibition),Gastric Acid Secretion [5]; 50 mg/kg i.p.,90 % Inhibition
same,Gastric Acid Output,Gastric Acid Secretion [5]; 50 mg/kg i.p.,56 ± 12 μEg/4 hr
same,Gastric Acid Output (% Inhibition),Gastric Acid Secretion [5]; 50 mg/kg p.o.,65 % Inhibition
same,Gastric Acid Output,Gastric Acid Secretion [5]; 50 mg/kg p.o.,154 ± 33 μEq/4 hr
same,Gastric Acid Output (% Inhibition),Gastric Acid Secretion [5]; 100 mg/kg p.o.,84 % Inhibition
same,Gastric Acid Output,Gastric Acid Secretion [5]; 100 mg/kg p.o.,71 ± 19 μEq/4 hr
same,ED50,"Gastric Acid Secretion [5]; ip, intraperitoneal administration",25 mg/kg
same,ED50,Gastric Acid Secretion [5]; oral administration,28 mg/kg
same,basal gastric acid secretion (in words),"Gastric Acid Secretion [5]; listed as 1,3-Dihydro-3-(2-hydroxy-2-methylpropyl)-2H-isoindol-1-one",inhibiting basal gastric acid secretion in the rat
same,basal gastric acid secretion (in words),"Gastric Acid Secretion [5]; listed as 1,3-dihydro-3-(2-hydroxy-2-methylpropyl)-2H-isoindol-1-one",can inhibit gastric acid secretion
same,Temperature Before Oxotremorine,[1]; 25 mg/kg i.p.,36.7 ± 0.2 °C
same,Temperature after Oxotremorine,"[1]; 25 mg/kg i.p., 15 min",31.4 ± 0.2 °C
same,Lacrimation (L) score,[1]; [10],2.0
same,Salivation (S) score,[1]; [10],2.0
same,Tremor (T) score,[1]; [10],2.0
same,Temperature after Oxotremorine,"[1]; 25 mg/kg i.p., 30 min",29.2 ± 0.2 °C
same,Lacrimation (L) score,[1]; [11],2.0
same,Salivation (S) score,[1]; [11],2.0
same,Tremor (T) score,[1]; [11],2.0
same,Temperature Before Oxotremorine,[1]; 100 mg/kg i.p.,32.8 ± 0.2 °C
same,Temperature after Oxotremorine,"[1]; 100 mg/kg i.p., 15 min",31.2 ± 0.1 °C
same,Lacrimation (L) score,[1]; [12],0.7
same,Salivation (S) score,[1]; [12],2.0
same,Tremor (T) score,[1]; [12],2.0
same,Temperature after Oxotremorine,"[1]; 100 mg/kg i.p., 30 min",30.5 ± 0.2 °C
same,Lacrimation (L) score,[1]; [13],1.0
same,Salivation (S) score,[1]; [13],2.0
same,Tremor (T) score,[1]; [13],2.0
same,anticholinergic activity (in words),[1]; see Example 5,does not exhibit appreciable anticholineric activity
same,Ulcers Formed (% Inhibition),[3]; 50 mg/kg p.o.,40 % Inhibition
same,Ulcers Formed,[3]; 50 mg/kg p.o.,3.9 ± 1.2
same,Ulcers Formed (% Inhibition),[3]; 100 mg/kg p.o.,55 % Inhibition
same,Ulcers Formed,[3]; 100 mg/kg p.o.,2.9 ± 0.5
same,Ulcers Formed (% Inhibition),[3]; 200 mg/kg p.o.,69 % Inhibition
same,Ulcers Formed,[3]; 200 mg/kg p.o.,2.0 ± 0.8
same,ED50,[3],80 mg/kg
same,cold-restraint-induced ulcer formation (in words),"[3]; rat, orally or parenterally",cold-resistant-induced ulcer formation in the rat
same,Ulcers Formed (% Inhibition),[2]; 25 mg/kg p.o.,50 % Inhibition
same,Ulcers Formed,[2]; 25 mg/kg p.o.,4.9 ± 1.2
same,Ulcers Formed (% Inhibition),[2]; 50 mg/kg p.o.,75 % Inhibition
same,Ulcers Formed,[2]; 50 mg/kg p.o.,2.4 ± 0.7
same,Ulcers Formed (% Inhibition),[2]; 100 mg/kg p.o.,82 % Inhibition
same,Ulcers Formed,[2]; 100 mg/kg p.o.,1.8 ± 0.6
same,ED50,[2],22 mg/kg
same,indomethacin-induced ulcer formation (in words),"[2]; rat, orally or parenterally",inhibiting indomethacin-induced ulcer formation in the rat
